Test results as given in patent US10251395B2, “Substituted furano-/thienocycloalkylamino-2-pyrimidine derivatives and use thereof for controlling undesired plant growth” (Bayer CropScience Aktiengesellschaft, priority 2015, dated 2019).

Columns and labels:
Assay type in all cases: in vivo
Alopecurus myosuroides = assay: Pre-emergence herbicidal effect; conditions: scored visually after 3 weeks
Excerpt: (§1) Seeds of monocotyledonous and dicotyledonous weed plants and crop plants are laid out in wood-fiber pots in sandy loam and covered with soil. The compounds of the invention, formulated in the form of wettable powders (WP) or as emulsion concentrates (EC), are then applied to the surface of the covering soil as aqueous suspension or emulsion at a water application rate equating to 600 to 800 L/ha with addition of 0.2% wetting agent.
(§2) After the treatment, the pots are placed in a greenhouse and kept under good growth conditions for the trial plants. The damage to the test plants is scored visually after a test period of 3 weeks by comparison with untreated controls (herbicidal activity in percent (%): 100% activity=the plants have died, 0% activity=like control plants).
(§3) • ABUTH: Abutilon theophrasti ALOMY: Alopecurus myosuroides • AMARE: Amaranthus retroflexus AVEFA: Avena fatua • CYPES: Cyperus esculentus ECHCG: Echinochloa crus-galli • LOLMU: Lolium multiflorum MATIN: Matricaria inodora • PHBPU: Ipomoea purpurea POLCO: Polygonum convolvulus • SETVI: Setaria viridis STEME: Stellaria media • VERPE: Veronica persica VIOTR: Viola tricolor

Amaranthus retroflexus [1] = assay: Pre-emergence herbicidal effect; conditions: scored visually after 3 weeks
Excerpt: as §1, §2, §3

Echinochloa crus-galli [2] = assay: Pre-emergence herbicidal effect; conditions: Dosage 320 g/ha, scored visually after 3 weeks
Excerpt: as §1, §2, §3

Lolium multiflorum = assay: Pre-emergence herbicidal effect; conditions: Dosage 320 g/ha, scored visually after 3 weeks
Excerpt: as §1, §2, §3

Matricaria inodora [3] = assay: Pre-emergence herbicidal effect; conditions: scored visually after 3 weeks
Excerpt: as §1, §2, §3

Setaria viridis [4] = assay: Pre-emergence herbicidal effect; conditions: scored visually after 3 weeks
Excerpt: as §1, §2, §3

Stellaria media [5] = assay: Pre-emergence herbicidal effect; conditions: scored visually after 3 weeks
Excerpt: as §1, §2, §3

Veronica persica [6] = assay: Pre-emergence herbicidal effect; conditions: scored visually after 3 weeks
Excerpt: as §1, §2, §3

Viola tricolor [7] = assay: Pre-emergence herbicidal effect; conditions: scored visually after 3 weeks
Excerpt: as §1, §2, §3

Ipomoea purpurea = assay: Post-emergence herbicidal effect; conditions: assessed visually after about 3 weeks vs untreated controls
Excerpt: (§4) • ABUTH: Abutilon theophrasti ALOMY: Alopecurus myosuroides • AMARE: Amaranthus retroflexus AVEFA: Avena fatua • CYPES: Cyperus esculentus ECHCG: Echinochloa crus-galli • LOLMU: Lolium multiflorum MATIN: Matricaria inodora • PHBPU: Ipomoea purpurea POLCO: Polygonum convolvulus • SETVI: Setaria viridis STEME: Stellaria media • VERPE: Veronica persica VIOTR: Viola tricolor Seeds of monocotyledonous and dicotyledonous weed and crop plants are laid out in sandy loam in wood-fiber pots, covered with soil and cultivated in a greenhouse under good growth conditions. 2 to 3 weeks after sowing, the test plants are treated at the one-leaf stage. The compounds of the invention, formulated in the form of wettable powders (WP) or as emulsion concentrates (EC), are then sprayed onto the green parts of the plants as aqueous suspension or emulsion at a water application rate equating to 600 to 800 L/ha with addition of 0.2% wetting agent. After the test plants have been left to stand in the greenhouse under optimal growth conditions for about 3 weeks, the action of the preparations is assessed visually in comparison to untreated controls (herbicidal action in percent (%): 100% activity=the plants have died, 0% activity=like control plants).

Stellaria media [8] = assay: Post-emergence herbicidal effect; conditions: assessed visually after about 3 weeks vs untreated controls
Excerpt: as §4

Veronica persica [9] = assay: Post-emergence herbicidal effect; conditions: assessed visually after about 3 weeks vs untreated controls
Excerpt: as §4

Viola tricolor [10] = assay: Post-emergence herbicidal effect; conditions: assessed visually after about 3 weeks vs untreated controls
Excerpt: as §4

Abutilon theophrasti = assay: Post-emergence herbicidal effect; conditions: assessed visually after about 3 weeks vs untreated controls
Excerpt: as §4

Amaranthus retroflexus [11] = assay: Post-emergence herbicidal effect; conditions: assessed visually after about 3 weeks vs untreated controls
Excerpt: as §4

Matricaria inodora [12] = assay: Post-emergence herbicidal effect; conditions: assessed visually after about 3 weeks vs untreated controls
Excerpt: as §4

Setaria viridis [13] = assay: Post-emergence herbicidal effect; conditions: assessed visually after about 3 weeks vs untreated controls
Excerpt: as §4

Polygonum convolvulus = assay: Pre-emergence herbicidal effect; conditions: scored visually after 3 weeks
Excerpt: as §1, §2, §3

Echinochloa crus-galli [14] = assay: Post-emergence herbicidal effect; conditions: 320 g/ha, assessed visually after about 3 weeks vs untreated controls
Excerpt: as §4

Row | SMILES | ALOMY pre-emergence efficacy (herbicidal activity) (Alopecurus myosuroides; Dosage 320 g/ha) [%] | AMARE pre-emergence efficacy (herbicidal activity) (Amaranthus retroflexus [1]; Dosage 320 g/ha) [%] | ECHCG pre-emergence efficacy (herbicidal activity) (Echinochloa crus-galli [2]) [%] | LOLMU pre-emergence efficacy (herbicidal activity) (Lolium multiflorum) [%] | MATIN pre-emergence efficacy (herbicidal activity) (Matricaria inodora [3]; Dosage 80 g/ha) [%] | MATIN pre-emergence efficacy (herbicidal activity) (Matricaria inodora [3]; Dosage 320 g/ha) [%] | SETVI pre-emergence efficacy (herbicidal activity) (Setaria viridis [4]; Dosage 320 g/ha) [%] | STEME pre-emergence efficacy (herbicidal activity) (Stellaria media [5]; Dosage 80 g/ha) [%] | STEME pre-emergence efficacy (herbicidal activity) (Stellaria media [5]; Dosage 320 g/ha) [%] | VERPE pre-emergence efficacy (herbicidal activity) (Veronica persica [6]; Dosage 320 g/ha) [%] | VIOTR pre-emergence efficacy (herbicidal activity) (Viola tricolor [7]; Dosage 320 g/ha) [%] | post-emergence efficacy STEME (Stellaria media [8]; 80 g/ha) [%] | post-emergence efficacy STEME (Stellaria media [8]; 320 g/ha) [%] | post-emergence efficacy VERPE (Veronica persica [9]; 320 g/ha) [%] | post-emergence efficacy VIOTR (Viola tricolor [10]; 80 g/ha) [%] | post-emergence efficacy VIOTR (Viola tricolor [10]; 320 g/ha) [%] | SETVI pre-emergence efficacy (herbicidal activity) (Setaria viridis [4]; Dosage 80 g/ha) [%] | VERPE pre-emergence efficacy (herbicidal activity) (Veronica persica [6]; Dosage 80 g/ha) [%] | VIOTR pre-emergence efficacy (herbicidal activity) (Viola tricolor [7]; Dosage 80 g/ha) [%] | post-emergence efficacy ABUTH (Abutilon theophrasti; 320 g/ha) [%] | also measured
1 | CCOC(=O)c1cnc(NC2CCCc3sc(C)cc32)nc1N (racemic) [compound 293] | 70 | 100 | 80 | 60 | 70 | 100 | 100 | 100 | 100 | 100 | 100 | 80 | 100 | 90 | 70 | 90 |  |  |  |  | post-emergence efficacy PHBPU (Ipomoea purpurea; 80 g/ha): 80%; post-emergence efficacy PHBPU (Ipomoea purpurea; 320 g/ha): 90%
2 | Cc1cc2c(s1)CCCC2Nc1ncc(-c2ccccc2)c(N)n1 (racemic) [compound 296] |  |  |  |  | 90 | 100 | 100 |  | 90 | 100 | 100 |  |  | 90 | 70 | 80 | 70 | 100 | 60 | 70 | post-emergence efficacy AMARE (Amaranthus retroflexus [11]; 80 g/ha): 60%; post-emergence efficacy AMARE (Amaranthus retroflexus [11]; 320 g/ha): 90%; post-emergence efficacy MATIN (Matricaria inodora [12]; 320 g/ha): 60%; post-emergence efficacy SETVI (Setaria viridis [13]; 80 g/ha): 40%; post-emergence efficacy SETVI (Setaria viridis [13]; 320 g/ha): 70%
3 | Cc1cc2c(s1)CCCC2Nc1ncc(C(N)=O)c(N)n1 (racemic) [compound 267] | 80 | 100 | 90 |  |  |  | 80 | 100 | 100 | 100 | 100 | 80 | 100 | 80 | 80 | 90 | 80 | 100 | 90 | 80 | AMARE pre-emergence efficacy (herbicidal activity) (Amaranthus retroflexus [1]; Dosage 80 g/ha): 100%; post-emergence efficacy ABUTH (Abutilon theophrasti; 80 g/ha): 80%; post-emergence efficacy AMARE (Amaranthus retroflexus [11]; 80 g/ha): 80%; post-emergence efficacy AMARE (Amaranthus retroflexus [11]; 320 g/ha): 80%; post-emergence efficacy PHBPU (Ipomoea purpurea; 320 g/ha): 80%; post-emergence efficacy MATIN (Matricaria inodora [12]; 80 g/ha): 80%; post-emergence efficacy MATIN (Matricaria inodora [12]; 320 g/ha): 80%; post-emergence efficacy SETVI (Setaria viridis [13]; 320 g/ha): 60%; post-emergence efficacy VERPE (Veronica persica [9]; 80 g/ha): 80%
4 | C=C(c1cnc(NC2CCCc3sc(C)cc32)nc1N)C(F)(F)F (racemic) [compound 275] | 80 | 100 | 100 | 60 | 90 | 100 | 100 | 100 | 100 | 100 | 100 | 90 | 90 | 90 | 70 | 90 | 90 | 100 | 100 | 90 | ALOMY pre-emergence efficacy (herbicidal activity) (Alopecurus myosuroides; Dosage 80 g/ha): 80%; AMARE pre-emergence efficacy (herbicidal activity) (Amaranthus retroflexus [1]; Dosage 80 g/ha): 70%; POLCO pre-emergence efficacy (herbicidal activity) (Polygonum convolvulus; Dosage 320 g/ha): 70%; post-emergence efficacy ABUTH (Abutilon theophrasti; 80 g/ha): 80%; post-emergence efficacy PHBPU (Ipomoea purpurea; 320 g/ha): 70%; post-emergence efficacy SETVI (Setaria viridis [13]; 80 g/ha): 70%; post-emergence efficacy SETVI (Setaria viridis [13]; 320 g/ha): 80%
5 | Nc1nc(NC2CCCc3sccc32)ncc1C(F)(F)F (racemic) [compound 70] |  | 100 | 100 | 100 | 100 | 100 | 100 | 100 | 100 | 100 | 100 | 100 | 100 |  |  | 100 | 100 | 90 | 100 |  | AMARE pre-emergence efficacy (herbicidal activity) (Amaranthus retroflexus [1]; Dosage 80 g/ha): 100%; POLCO pre-emergence efficacy (herbicidal activity) (Polygonum convolvulus; Dosage 320 g/ha): 100%; post-emergence efficacy AMARE (Amaranthus retroflexus [11]; 80 g/ha): 40%; post-emergence efficacy AMARE (Amaranthus retroflexus [11]; 320 g/ha): 100%; post-emergence efficacy ECHCG (Echinochloa crus-galli [14]): 80%
6 | CN=C(C)c1cnc(NC2CCCc3sc(C)cc32)nc1N (stereo not drawn) [compound 352] |  | 100 |  | 60 | 90 | 90 | 100 | 100 | 100 | 100 | 100 |  |  | 100 | 80 | 90 |  | 100 | 80 | 90 | POLCO pre-emergence efficacy (herbicidal activity) (Polygonum convolvulus; Dosage 80 g/ha): 60%; POLCO pre-emergence efficacy (herbicidal activity) (Polygonum convolvulus; Dosage 320 g/ha): 60%; post-emergence efficacy ABUTH (Abutilon theophrasti; 80 g/ha): 80%; post-emergence efficacy SETVI (Setaria viridis [13]; 320 g/ha): 80%
7 | Cc1cc2c(s1)CCCC2Nc1ncc(-c2cccc(C(F)(F)F)c2)c(N)n1 (racemic) [compound 294] | 100 |  |  | 100 | 90 | 100 |  | 100 | 100 | 100 | 90 |  |  | 90 |  |  |  | 100 | 80 | 70 | ALOMY pre-emergence efficacy (herbicidal activity) (Alopecurus myosuroides; Dosage 80 g/ha): 70%; POLCO pre-emergence efficacy (herbicidal activity) (Polygonum convolvulus; Dosage 80 g/ha): 70%; POLCO pre-emergence efficacy (herbicidal activity) (Polygonum convolvulus; Dosage 320 g/ha): 80%; post-emergence efficacy ABUTH (Abutilon theophrasti; 80 g/ha): 60%; post-emergence efficacy AMARE (Amaranthus retroflexus [11]; 80 g/ha): 70%; post-emergence efficacy AMARE (Amaranthus retroflexus [11]; 320 g/ha): 70%
